Laboratory results reported in US7968532B2 (Besins Healthcare Luxembourg, priority 2003, dated 2011).
Like-named read-outs stand apart in the source and are kept apart here. Each block holds one compound with its values, some of them ahead of it.

Assays:
[1] = system: rat liver; conditions: cited from earlier work
[2] = one person in Group 2 (0.5 mg/day gel, seventh day); one person in Group 1 (oral tamoxifen, fifth day); cited from earlier work
[3] = Follow-up study: percutaneous Z-[^3H]-4-hydroxy tamoxifen or Z-[^3H]-tamoxifen on the breast before surgery; tissue, plasma, urine radioactivity; conditions: for Share of radioactivity in blood: 24 hours after percutaneous 4-hydroxy tamoxifen
[4] = Pharmacokinetics of 4-hydroxy tamoxifen gel in healthy premenopausal women; assay type: in vivo, human
[5] = topical application
[6] = in vivo
[7] = human, in vivo; cited from earlier work

SMILES: CC/C(=C(\c1ccccc1)c1ccc(OCCN(C)C)cc1)c1ccccc1 [tamoxifen, reference compound]
Rat liver carcinogen [1]: is a potent rat liver carcinogen
Reported side effects [2]: hot flashes and mild vaginitis

SMILES: CCC(=C(c1ccc(O)cc1)c1ccc(O)cc1)c1ccccc1 [Bisphenol]
Share of radioactivity in blood [3]: 11%

SMILES: CC/C(=C(/c1ccc(O)cc1)c1ccc(OCCN(C)C)cc1)c1ccccc1 (single isomer, unassigned) [E isomer]
Percentage of radioactivity in breast tissue as Z and E isomer ([3]; day 7 after percutaneous administration): 33%

SMILES: CC/C(=C(\c1ccc(O)cc1)c1ccc(OCCN(C)C)cc1)c1ccccc1 [Z-4-hydroxy tamoxifen]
Percentage of radioactivity in breast tissue as Z and E isomer [6]: 32%

More lines, main results first:

Share of radioactivity in blood [3]: 18%
SMILES: CCC(=C(c1ccc(O)cc1)c1ccc(OCCNC)cc1)c1ccccc1 [N-Desmethyl-4-Hydroxy Tamoxifen]

Plasma concentration of 4-hydroxy tamoxifen, Mean ± SD (Range) ([4]; 0.5 mg/day, gel 20 mg/100 g, n=12, First cycle Day 1, 0 hr): (0-17.2) pg/mL
Plasma concentration of 4-hydroxy tamoxifen, Mean ± SD (Range) ([4]; 0.5 mg/day, gel 20 mg/100 g, n=12, Second cycle, +8 days, LOQ <5 pg/mL): <LOQ
Plasma concentration of 4-hydroxy tamoxifen, Mean ± SD (Range) ([4]; 0.5 mg/day, gel 20 mg/100 g, n=12, Second cycle, +12 days (maximum)): ≤ 9.09 pg/mL
Plasma concentration of 4-hydroxy tamoxifen, Mean ± SD (Range) ([4]; 0.5 mg/day, gel 20 mg/100 g, n=12, Second cycle, +20 days): 0 pg/mL
Plasma concentration of 4-hydroxy tamoxifen, Mean ± SD (Range) ([4]; 1 mg/day, gel 20 mg/100 g, n=8, First cycle Day 1, 0 hr): (0-13.9) pg/mL
Plasma concentration of 4-hydroxy tamoxifen, Mean ± SD (Range) ([4]; 1 mg/day, gel 20 mg/100 g, n=8, Second cycle, +20 days, LOQ <5 pg/mL): <LOQ
Plasma concentration of 4-hydroxy tamoxifen, Mean ± SD (Range) ([4]; 1 mg/day, gel 57 mg/100 g, n=12, First cycle Day 1, 0 hr): (0-9.5) pg/mL
Plasma concentration of 4-hydroxy tamoxifen, Mean ± SD (Range) ([4]; 1 mg/day, gel 57 mg/100 g, n=12, Second cycle, +8 days): (0-14.8) pg/mL
Plasma concentration of 4-hydroxy tamoxifen, Mean ± SD (Range) ([4]; 2 mg/day, gel 57 mg/100 g, n=12, First cycle Day 1, 0 hr): (0-0) pg/mL
Plasma concentration of 4-hydroxy tamoxifen, Mean ± SD (Range) ([4]; 2 mg/day, gel 57 mg/100 g, n=12, Second cycle, +12 days): (0-30.4) pg/mL
Share of radioactivity in blood [6]: 68%
Time of plateau of radioactivity in blood [6]: 4 to 6 days
SMILES: CCC(=C(c1ccc(O)cc1)c1ccc(OCCN(C)C)cc1)c1ccccc1 [4-hydroxy tamoxifen, 1-[4-(2-N-dimethylaminoethoxy)phenyl]-1-(4-hydroxyphenyl)-2-phenylbut-1-ene]
Systemic effects [5]: no detectable laboratory or clinical evidence of systemic effects
Rat liver carcinogen ([1]; in vivo): not
Metabolism in cytosolic and nuclear fractions of breast tissue [6]: remained unmetabolized except for limited isomerization from the Z to the E form
Subcellular distribution in breast tissue [6]: concentrated predominantly in the cytosolic and nuclear fractions of breast tissue
Radioactivity in excised tissue and normal breast tissue surrounding the tumor [7]: contained radioactivity
